Laboratory results reported in patent US11524966B1 (Valo Early Discovery, Inc., priority 2017, dated 2022).

Molecular target: T1, USP28 (His-tagged USP28-FL-mammalian) (Homo sapiens, UniProt Q96RU2)
T1 construct: Expression of USP28 (1-1077)-TEV-6*His (pTT5 vector); made in house; host or cells: Expi293f cells (pTT5 vector)
T1 sequence (Q96RU2 1-1077): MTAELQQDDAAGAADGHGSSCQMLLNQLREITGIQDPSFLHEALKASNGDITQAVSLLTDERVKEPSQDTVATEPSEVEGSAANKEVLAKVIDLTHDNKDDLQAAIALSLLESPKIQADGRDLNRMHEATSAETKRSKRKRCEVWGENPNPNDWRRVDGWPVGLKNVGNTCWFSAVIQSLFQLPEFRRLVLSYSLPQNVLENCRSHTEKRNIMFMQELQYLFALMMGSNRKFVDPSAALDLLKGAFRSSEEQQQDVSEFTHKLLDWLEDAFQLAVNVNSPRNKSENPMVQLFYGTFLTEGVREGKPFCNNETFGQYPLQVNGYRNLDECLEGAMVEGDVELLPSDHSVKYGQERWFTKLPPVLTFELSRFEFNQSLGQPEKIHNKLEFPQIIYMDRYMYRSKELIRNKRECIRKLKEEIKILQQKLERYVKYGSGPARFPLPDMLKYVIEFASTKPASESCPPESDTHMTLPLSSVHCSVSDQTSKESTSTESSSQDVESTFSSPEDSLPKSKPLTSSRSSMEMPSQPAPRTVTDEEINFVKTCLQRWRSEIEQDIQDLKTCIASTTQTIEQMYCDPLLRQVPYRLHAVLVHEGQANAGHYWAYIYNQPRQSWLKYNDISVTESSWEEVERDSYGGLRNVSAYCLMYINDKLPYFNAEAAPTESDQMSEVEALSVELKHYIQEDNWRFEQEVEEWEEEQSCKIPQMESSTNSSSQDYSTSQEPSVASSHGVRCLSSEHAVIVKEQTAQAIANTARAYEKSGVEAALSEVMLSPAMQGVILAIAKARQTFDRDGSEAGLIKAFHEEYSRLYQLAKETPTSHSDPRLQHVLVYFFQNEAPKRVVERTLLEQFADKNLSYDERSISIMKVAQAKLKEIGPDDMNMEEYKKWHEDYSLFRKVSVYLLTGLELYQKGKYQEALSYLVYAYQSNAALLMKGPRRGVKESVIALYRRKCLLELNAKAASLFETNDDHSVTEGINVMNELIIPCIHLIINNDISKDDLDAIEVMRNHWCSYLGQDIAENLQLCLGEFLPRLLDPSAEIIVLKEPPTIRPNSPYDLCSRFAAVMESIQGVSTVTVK
Experiment: Ubiquitin-Rhodamine 110 Assay for USP28 Activity, Example A-1(a)
Assay type: biochemical
Conditions: Ubiquitin-Rhodamine 110 assay, Example A-1(a); read-out: USP28 A-1(a) IC50 range
Outline: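 IC50 from 4-parameter logistic fit of percent inhibition versus no-enzyme and DMSO controls; compounds 25 μM to 1.3 nM, 3-fold. Ub-Rh110 cleavage (25 nM, below Km) by […] mammalian-expressed USP28-FL-His ran 45 min at room temperature, stopped with 10 mM citric acid, read ex 485/em 535.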

| Structure (SMILES) | IC50 [nM] |
| --- | --- |
| Cc1cnc2c(N)c(C(=O)N[C@H]3CCc4nc(N5C[C@@H](N)C6(COC6)C5)ccc4C3)sc2n1 [Example 366, 7-amino-N-[(6S)-2-[(8S)-8-amino-2-oxa-6-azaspiro[3.4]octan-6-yl]-5,6,7,8-tetrahydroquinolin-6-yl]-3-methylthieno[2,3-b]pyrazine-6-carboxamide] | 200 to 2000 |
| Cc1ccc2c(N)c(C(=O)N[C@H]3COc4cc(N5CCC[C@](C)(O)C5)ccc4C3)sc2n1 [Example 7-2] | 1 to 50 |
| Cc1ccc2c(N)c(C(=O)N[C@@H]3CCc4cc(N5CCNCC5)c(F)c(F)c4C3)sc2n1 [Example 418, 3-amino-N-[(2R)-7,8-difluoro-6-(piperazin-1-yl)-1,2,3,4-tetrahydronaphthalen-2-yl]-6-methylthieno[2,3-b]pyridine-2-carboxamide] | 50 to 200 |
| CC(=O)Nc1cccc(CNc2ccc(C(=O)N[C@H]3COc4cc(N5CCNCC5)ccc4C3)cn2)c1 [Example 473, (R)-6-((3-acetamidobenzyl)amino)-N-(7-(piperazin-1-yl)chroman-3-yl)nicotinamide] | > 2000 |
| CCn1cc(Cl)c2cc(C(=O)N[C@H]3COc4c(F)c(N5CC6CCC(C5)N6)cc(F)c4C3)nnc21 [Example 355, 5-chloro-N-[(3R)-7-{3,8-diazabicyclo[3.2.1]octan-3-yl}-5,8-difluoro-3,4-dihydro-2H-1-benzopyran-3-yl]-7-ethyl-7H-pyrrolo[2,3-c]pyridazine-3-carboxamide] | 50 to 200 |
| CO[C@@H]1CN(c2cc3c(c(F)c2F)C[C@@H](NC(=O)c2sc4nc(C)ccc4c2N)CO3)C[C@H]1N [Example 415, 3-amino-N-[(3R)-7-[(3R,4R)-3-amino-4-methoxypyrrolidin-1-yl]-5,6-difluoro-3,4-dihydro-2H-1-benzopyran-3-yl]-6-methylthieno[2,3-b]pyridine-2-carboxamide] | 1 to 50 |
| Cc1ccc2c(N)c(C(=O)N[C@H]3CCc4nc(N5C[C@@H](N)[C@H](C(F)(F)F)C5)ccc4C3)sc2n1 [Example 364, 3-amino-N-[(6S)-2-[(3S,4R)-3-amino-4-(trifluoromethyl)pyrrolidin-1-yl]-5,6,7,8-tetrahydroquinolin-6-yl]-6-methylthieno[2,3-b]pyridine-2-carboxamide] | 50 to 200 |
| CCn1cc(Cl)c2cc(C(=O)N[C@H]3COc4c(C#N)c(N5CC6CCC(C5)N6)cc(F)c4C3)nnc21 [Example 356, 5-chloro-N-[(3R)-8-cyano-7-{3,8-diazabicyclo[3.2.1]octan-3-yl}-5-fluoro-3,4-dihydro-2H-1-benzopyran-3-yl]-7-ethyl-7H-pyrrolo[2,3-c]pyridazine-3-carboxamide] | 200 to 2000 |
| Cc1cnc2c(N)c(C(=O)N[C@H]3CCc4cc(N5CC6CNCC(C5)O6)ccc4C3)sc2n1 [Example 448, N-((2S)-6-(9-oxa-3,7-diazabicyclo[3.3.1]nonan-3-yl)-1,2,3,4-tetrahydronaphthalen-2-yl)-7-amino-3-methylthieno[2,3-b]pyrazine-6-carboxamide] | 1 to 50 |
| Cc1ccc2c(N)c(C(=O)N[C@H]3COc4cc(N5CCC(F)(F)CC5)ccc4C3)sc2n1 [Example 5-1, (R)-3-amino-N-(7-(4,4-difluoropiperidin-1-yl)chroman-3-yl)-6-methylthieno[2,3-b]pyridine-2-carboxamide] | 1 to 50 |
| CCc1cccc2c(C(=O)N[C@H]3COc4cc(N5CCNCC5)ccc4C3)cnn12 [Example 474, 7-ethyl-N-[(3R)-7-(piperazin-1-yl)-3,4-dihydro-2H-1-benzopyran-3-yl]pyrazolo[1,5-a]pyridine-3-carboxamide] | 1 to 50 |
| COC[C@H]1CN(c2ccc3c(n2)OC[C@H](NC(=O)c2sc4nc(C)cc(C)c4c2N)C3)C[C@H]1N [Example 349, 3-amino-N-[(3R)-7-[(3S,4S)-3-amino-4-(methoxymethyl)pyrrolidin-1-yl]-2H,3H,4H-pyrano[2,3-b]pyridin-3-yl]-4,6-dimethylthieno[2,3-b]pyridine-2-carboxamide] | 50 to 200 |
| Cc1ccc2c(N)c(C(=O)N[C@H]3CCc4nc(N5C[C@H](N)[C@H](C(F)F)C5)ccc4C3)sc2n1 [Example 345, 3-amino-N-[(6S)-2-[(3R,4R)-3-amino-4-(difluoromethyl)pyrrolidin-1-yl]-5,6,7,8-tetrahydroquinolin-6-yl]-6-methylthieno[2,3-b]pyridine-2-carboxamide] | 50 to 200 |
| Cc1ccc2c(N)c(C(=O)N[C@H]3CCc4nc(N5C[C@H](N)[C@H](OC(C)(F)F)C5)ccc4C3)sc2n1 [Example 357, 3-amino-N-[(6S)-2-[(3S,4R)-3-amino-4-(1,1-difluoroethoxy)pyrrolidin-1-yl]-5,6,7,8-tetrahydroquinolin-6-yl]-6-methylthieno[2,3-b]pyridine-2-carboxamide] | 50 to 200 |
| O=C(N[C@H]1COc2cc(N3CC4CCC(C3)N4)ccc2C1)c1cnc2c(c1)[C@@H]1C[C@@H]1CN2 [Example 3-15, (1aS,7bR)-N-((3R)-7-(3,8-diazabicyclo[3.2.l]octan-3-yl)chroman-3-yl)-1a,2,3,7b-tetrahydro-1H-cyclopropa[c][1,8]naphthyridine-6-carboxamide] | 1 to 50 |
| Cc1cnc2c(N)c(C(=O)N[C@H]3CCc4cc(N5CCCNCC5)ccc4C3)sc2n1 [Example 455, (S)-N-(6-(1,4-diazepan-1-yl)-1,2,3,4-tetrahydronaphthalen-2-yl)-7-amino-3-methylthieno[2,3-b]pyrazine-6-carboxamide] | 50 to 200 |
| Cc1ccc2c(N)c(C(=O)N[C@H]3COc4cc(N5CC[C@]6(CCCNC6)C5)ccc4C3)sc2n1 [Example 3-13, N-((R)-7-((S)-2,7-diazaspiro[4.5]decan-2-yl)chroman-3-yl)-3-amino-6-methylthieno[2,3-b]pyridine-2-carboxamide] | 1 to 50 |
| CN[C@H]1CN(c2ccc3c(c2)OC[C@H](NC(=O)c2sc4nc(C)ccc4c2N)C3)C[C@@H]1O [Example 350, 3-amino-N-[(3R)-7-[(3S,4S)-3-hydroxy-4-(methylamino)pyrrolidin-1-yl]-3,4-dihydro-2H-1-benzopyran-3-yl]-6-methylthieno[2,3-b]pyridine-2-carboxamide] | 50 to 200 |
| CO[C@H]1CN(c2cc3c(c(F)c2F)C[C@@H](NC(=O)c2sc4nc(C)ccc4c2N)CO3)C[C@@H]1N [Example 416, 3-amino-N-[(3R)-7-[(3S,4S)-3-amino-4-methoxpyrrolidin-1-yl]-5,6-difluoro-3,4-dihydro-2H-1-benzopyran-3-yl]-6-methylthieno[2,3-b]pyridine-2-carboxamide] | 1 to 50 |
| Cc1ccc2c(N)c(C(=O)N[C@H]3COc4cc(N5CC(O)(C(F)(F)F)C5)ccc4C3)sc2n1 [Example 5-3, (R)-3-amino-N-(7-(3-hydroxy-3-(trifluoromethyl)azetidin-1-yl)chroman-3-yl)-6-methylthieno[2,3-b]pyridine-2-carboxamide] | 1 to 50 |
| Cc1ccc2c(N)c(C(=O)N[C@H]3CCc4nc(N5C[C@@H](N)[C@@H](OC(C)(F)F)C5)ccc4C3)sc2n1 [Example 358, 3-amino-N-[(6S)-2-[(3R,4S)-3-amino-4-(1,1-difluoroethoxy)pyrrolidin-1-yl]-5,6,7,8-tetrahydroquinolin-6-yl]-6-methylthieno[2,3-b]pyridine-2-carboxamide] | 200 to 2000 |
| O=C(N[C@H]1CCc2c(c(F)cc(N3CC4CCC(C3)N4)c2C(F)F)C1)c1cnc2c(c1)[C@H]1C[C@H]1CN2 (single isomer, unassigned) [Example 360] | 1 to 50 |
| Cc1ccc2c(N)c(C(=O)N[C@H]3COc4cc(N5C[C@H](N)[C@@H](F)C5)ccc4C3)sc2n1 [Example 3-7, 3-amino-N-((R)-7-((3S,4S)-3-amino-4-fluoropyrrolidin-1-yl)chroman-3-yl)-6-methylthieno[2,3-b]pyridine-2-carboxamide] | 1 to 50 |
| COc1ccn2ncc(C(=O)N[C@H]3COc4cc(N5CCNCC5)ccc4C3)c2c1 [Example 461, (R)-5-methoxy-N-(7-(piperazin-1-yl)chroman-3-yl)pyrazolo[1,5-a]pyridine-3-carboxamide] | > 2000 |
